Article PMC6628374, “Preparation and Identification of Novel Antihypertensive Peptides from the In Vitro Gastrointestinal Digestion of Marine Cobia Skin Hydrolysates” (Nutrients, 2019)
Read-outs that look alike come from different tables or passages of the source. One block for each compound: values may come before it. Peptide text beside a SMILES is read from it.

Key:
Rabbit lung ACE = target: T1, Rabbit lung ACE (Oryctolagus cuniculus, UniProt P12822); experiment: ACE inhibition assay (RP-HPLC, HHL substrate); format: biochemical; conditions: for Inhibition (%): at the peak's own peptide concentration; for IC50: identified peptides of peaks E6 to E9
T1 construct: Enzymes including pepsin, pancreatin and rabbit lung ACE were purchased from Sigma Chemical Co; purchased Sigma Chemical Co. (St. Louis, MO, USA); host or cells: rabbit lung (tissue-derived)
T1 sequence (P12822 34-1310): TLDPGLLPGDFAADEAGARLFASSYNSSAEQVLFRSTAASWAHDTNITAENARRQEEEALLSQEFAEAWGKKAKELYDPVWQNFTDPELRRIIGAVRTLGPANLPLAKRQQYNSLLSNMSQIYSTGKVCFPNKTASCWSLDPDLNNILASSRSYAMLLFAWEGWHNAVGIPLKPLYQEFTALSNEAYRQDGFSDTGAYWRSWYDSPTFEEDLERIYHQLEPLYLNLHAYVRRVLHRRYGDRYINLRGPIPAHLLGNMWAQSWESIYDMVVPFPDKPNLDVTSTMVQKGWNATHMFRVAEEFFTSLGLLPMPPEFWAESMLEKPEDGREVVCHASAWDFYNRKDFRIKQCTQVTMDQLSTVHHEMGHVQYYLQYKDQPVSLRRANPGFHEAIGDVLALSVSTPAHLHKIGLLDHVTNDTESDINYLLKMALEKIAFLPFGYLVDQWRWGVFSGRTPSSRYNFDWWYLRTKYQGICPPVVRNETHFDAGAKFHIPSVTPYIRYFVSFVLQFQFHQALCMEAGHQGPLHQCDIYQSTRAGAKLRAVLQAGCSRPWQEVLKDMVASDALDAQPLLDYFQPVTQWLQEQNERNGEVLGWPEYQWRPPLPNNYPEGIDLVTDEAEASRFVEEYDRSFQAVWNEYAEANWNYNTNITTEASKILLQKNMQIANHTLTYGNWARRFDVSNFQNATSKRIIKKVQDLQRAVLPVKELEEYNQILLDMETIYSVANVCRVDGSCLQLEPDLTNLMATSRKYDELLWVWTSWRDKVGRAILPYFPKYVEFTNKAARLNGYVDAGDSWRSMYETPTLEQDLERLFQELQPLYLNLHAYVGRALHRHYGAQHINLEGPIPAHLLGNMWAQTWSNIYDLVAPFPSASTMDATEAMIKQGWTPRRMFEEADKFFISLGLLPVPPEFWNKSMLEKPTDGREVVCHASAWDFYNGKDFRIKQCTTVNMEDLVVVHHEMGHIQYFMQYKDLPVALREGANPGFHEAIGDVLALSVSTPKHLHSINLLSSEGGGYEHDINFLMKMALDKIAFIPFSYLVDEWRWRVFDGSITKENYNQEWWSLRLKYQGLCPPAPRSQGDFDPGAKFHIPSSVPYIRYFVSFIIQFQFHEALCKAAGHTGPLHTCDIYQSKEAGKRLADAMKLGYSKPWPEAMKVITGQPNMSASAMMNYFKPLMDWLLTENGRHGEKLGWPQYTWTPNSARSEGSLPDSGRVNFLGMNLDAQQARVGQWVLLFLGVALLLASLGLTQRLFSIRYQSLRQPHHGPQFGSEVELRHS
Experimental: RP-HPLC was used to measure ACE inhibition by means of a method devised by Cushman and Cheung. The sample consisted of 15 mM HHL in Na-borate buffer (100 mM, pH 8.3) plus NaCl (300 mM). […] Equal volumes (75 μL) of the ACE solution and samples passed through a 5-kDa MWCO membrane were then incubated for 10 min at 37 °C. […] of the solution of HHL was then added and incubation was continued for a further 30 min. 1.0 N HCl (250 μL) was used to stop the reaction and 10 μL was injected into a Luna C18 column. […] Finally, inhibition activity was calculated using the following formula:Inhibition activity (%) = ((Ec - Es) / (Ec - Eb)) × 100where Ec is the absorbance when the buffer was added as control, Es is the absorbance when the sample was added to the reaction mixture (sample), and Eb is the absorbance when the stop solution was added before the reaction occurred (blank). […] The data used in this study were all averages of three readings or standard deviations (SDs).

ACE = conditions: cited from earlier work
ACE activity in plasma = system: ACE activity in plasma; parameters: method as in doi:10.1016/j.idairyj.2015.09.004; conditions: human volunteers, 100 mg oral, at 1.5 h; cited from earlier work
[1] = parameters: method as in doi:10.1016/j.idairyj.2015.09.004; conditions: human volunteers, 100 mg oral, after 30 min; cited from earlier work
[2] = target: angiotensin I-converting enzyme (rabbit lung ACE) (rabbit) (UniProt P12822)
[3] = target: angiotensin I-converting enzyme (rabbit lung ACE) (rabbit) (UniProt P12822); remark: listed apart in the source
[4] = RP-HPLC peaks of fraction E from PX-5G
[5] = equivalent of the μM value, read-out: IC50 (mg/mL) (converted)
[6] = peptides from Pacific cod skin gelatin hydrolysates (<1 kDa)
[7] = dipeptides from salmon muscle hydrolysate

Inhibition (%) (Rabbit lung ACE; [4]): 41.9%
IC50 (Rabbit lung ACE; [5]): 119 µM
IC50 (Rabbit lung ACE; read-out: IC50): 118 ± 2.8 µM
Compound: C[C@H](NC(=O)[C@H](C)NC(=O)[C@@H](N)Cc1c[nH]c2ccccc12)C(=O)O [Peak E6, Trp-Ala-Ala] (H-Trp-Ala-Ala-OH)

Inhibition (%) (Rabbit lung ACE; [4]): 81.1%
IC50 (Rabbit lung ACE; [5]): 9.4 µM
IC50 (Rabbit lung ACE; read-out: IC50): 9.4 ± 0.6 µM
Compound: C[C@H](N)C(=O)N[C@@H](Cc1c[nH]c2ccccc12)C(=O)N[C@@H](Cc1c[nH]c2ccccc12)C(=O)O [Peak E7, Ala-Trp-Trp] (H-Ala-Trp-Trp-OH)

Inhibition (%) (Rabbit lung ACE; [4]): 93.4%
IC50 (Rabbit lung ACE; [5]): 0.516 µM
IC50 (Rabbit lung ACE; read-out: IC50): 0.51 ± 0.1 µM
Compound: CC[C@H](C)[C@H](N)C(=O)N[C@@H](Cc1c[nH]c2ccccc12)C(=O)N[C@@H](Cc1c[nH]c2ccccc12)C(=O)O [Peak E8, Ile-Trp-Trp] (H-Ile-Trp-Trp-OH)

IER (inhibitory efficiency ratio) (Rabbit lung ACE; [4]): 3021.4 %/mg/mL
Inhibition (%) (Rabbit lung ACE; [4]): 42.3%
IC50 (Rabbit lung ACE; [5]): 26.8 µM
IC50 (Rabbit lung ACE; read-out: IC50): 26.8 ± 0.9 µM
Compound: CC(C)C[C@H](NC(=O)[C@@H](N)Cc1c[nH]c2ccccc12)C(=O)O [Peak E9, Trp-Leu] (H-Trp-Leu-OH; N-terminus and C-terminus assumed)
ACE-inhibition mode (ACE): noncompetitive inhibitors
IC50 (ACE): 29.9 to 34.1 µM
decrease of ACE activity in plasma (ACE activity in plasma): 16–22%
maximum plasma concentration [1]: 29 to 36 pmol/mL

Inhibition (%) of ACE enzyme activity by peak E7 at 0.058 mg/mL peptide [2]: 81.1%
IC50 of inhibition of ACE enzyme activity (hippuric acid released from HHL, RP-HPLC, 37 °C, pH 8.3) [3]: 9.4 μM
Compound: Ala-Trp-Trp (peptide)

Compound: G-A-S-S-G-M-P-G (GASSGMPG)
IC50 (ACE; [6]): 6.9 µM

Compound: G–R-G-S–V-P–A–Hyp–G-P
IC50 (ACE; peptide from squid skin collagen hydrolysate fraction <1 kDa): 47.8 µM

Inhibition (%) of ACE enzyme activity by peak E8 at 0.028 mg/mL peptide [2]: 93.4%
IC50 of inhibition of ACE enzyme activity (hippuric acid released from HHL, RP-HPLC, 37 °C, pH 8.3) [3]: 0.51 μM
Compound: Ile-Trp-Trp (peptide)

Compound: L-A-Y-A
IC50 (ACE; [6]): 14.5 µM

Compound: Leu-Trp
ACE-inhibition mode (ACE): noncompetitive inhibitors

Compound: Met-Trp
IC50 (ACE; [7]): 9.8 µM

Inhibition (%) of ACE enzyme activity by peak E6 at 0.048 mg/mL peptide [2]: 41.9%
IC50 of inhibition of ACE enzyme activity (hippuric acid released from HHL, RP-HPLC, 37 °C, pH 8.3) [3]: 118 μM
Compound: Trp-Ala-Ala (peptide)

Inhibition (%) of ACE enzyme activity by peak E9 at 0.014 mg/mL peptide [2]: 42.3%
IC50 of inhibition of ACE enzyme activity (hippuric acid released from HHL, RP-HPLC, 37 °C, pH 8.3) [3]: 26.8 μM
Compound: Trp-Leu (peptide)

Compound: Trp-Met
IC50 (ACE; [7]): 98.6 µM

Compound: Val-Arg-Tyr-Leu (VRYL; printed: Val-Arg-Tyr-Leu)
IC50 before hydrolysis with gastrointestinal proteases (ACE; peptide from Manchego cheese): 9 µg/mL
